Like-named read-outs stand apart in the source and are kept apart here. Where no end group is shown, it is not given here.

One experiment has as its target T1, K^b sol (Mus musculus, UniProt P01901).
T1 construct: K^b α1α2α3 domains (274 residues) and murine β2 microglobulin (99 residues); made in house; host or cells: Drosophila S2/M3 cells
T1 sequence (P01901 22-295): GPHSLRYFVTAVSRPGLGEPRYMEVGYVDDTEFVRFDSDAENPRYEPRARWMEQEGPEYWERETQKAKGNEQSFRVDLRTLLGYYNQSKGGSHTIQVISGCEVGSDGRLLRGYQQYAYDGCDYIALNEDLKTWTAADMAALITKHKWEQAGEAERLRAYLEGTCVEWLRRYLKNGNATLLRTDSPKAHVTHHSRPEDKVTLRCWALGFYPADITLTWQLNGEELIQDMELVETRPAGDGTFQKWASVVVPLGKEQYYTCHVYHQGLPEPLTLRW
T1 sequence (P01887 21-119 partner): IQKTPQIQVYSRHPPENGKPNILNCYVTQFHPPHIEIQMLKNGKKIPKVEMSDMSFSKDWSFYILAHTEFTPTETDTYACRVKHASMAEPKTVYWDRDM
Description: biochemical. It is filed as binding, murine.

In a further experiment the test system is B3/CD8 T cell hybridoma. Kind of experiment: Antigen presentation assay: IL-2 production by B3/CD8 measured with CTLL ^3 H thymidine incorporation. The following applies: peptide added to the culture medium, or protein osmotically loaded. On the technique in general: Incorporation of labelled thymidine or its analogues reports DNA synthesis.

On to `CC[C@H](C)[C@H](NC(=O)[C@@H](NC(=O)[C@@H](N)CO)[C@@H](C)CC)C(=O)N[C@@H](CC(N)=O)C(=O)N[C@@H](Cc1ccccc1)C(=O)N[C@@H](CCC(=O)O)C(=O)N[C@@H](CCCCN)C(=O)N[C@@H](CC(C)C)C(=O)O` [OVA-8, reference compound], for which the equilibrium dissociation constant (Kd) (in general, the free concentration of one partner at which half of the binding sites on the other are occupied at equilibrium, for simple one-to-one binding) on K^b sol (read-out: KD) turned out to be 4.1 nM. As for DLRGYVYQGL [VSV-10N], binding on K^b sol was put at a Kd of 390 nM. In turn, GYVYQGL [VSV-7, GYVYQGL] returned a Kd at K^b sol of 53 nM. Regarding LESIINFEKL [OVA-10N], the equilibrium dissociation constant (Kd) at K^b sol (read-out: KD) came to 280 nM. With LRGYVYQGL [VSV-9N], the Kd at K^b sol was 7.3 nM. Consider RGYVYQGLK [VSV-9C], for which the equilibrium dissociation constant (Kd) on K^b sol was determined as 6.9 nM. Consider RGYVYQGLKS [VSV-10C], for which the Kd at K^b sol turned out to be 21 nM. In the case of SIINFEKLT [OVA-9C], the Kd at K^b sol (read-out: KD) was 11 nM. For SIINFEKLTE [OVA-10C], the Kd at K^b sol (read-out: KD) was 14 nM.

B1: ovalbumin protein: ovalbumin (Sigma Chem. Co.) osmotically loaded into the cells (protein, UniProt P01012 2-386, looked up)
Ovalbumin: GSIGAASMEFCFDVFKELKVHHANENIFYCPIAIMSALAMVYLGAKDSTRTQINKVVRFDKLPGFGDSIEAQCGTSVNVHSSLRDILNQITKPNDVYSFSLASRLYAEERYPILPEYLQCVKELYRGGLEPINFQTAADQARELINSWVESQTNGIIRNVLQPSSVDSQTAMVLVNAIVFKGLWEKAFKDEDTQAMPFRVTEQESKPVQMMYQIGLFRVASMASEKMKILELPFASGTMSMLVLLPDEVSGLEQLESIINFEKLTEWTSSNVMEERKIKVYLPRMKMEEKYNLTSVLMAMGITDVFSSSANLSGISSAESLKISQAVHAAHAEINEAGREVVGSAEAGVDAASVSEEFRADHPFLFCIKHIATNAVLFFGRCVSP
In the case of B1, in the experiment with B3/CD8 T cell hybridoma, the “T cell recognition of K^b -expressing Drosophila cells (IL-2 production)” value is reported as “no recognition occurred”.

These data come from US5827737A, “In vitro activation of cytotoxic T cells” (The Scripps Research Institute, priority 1996, dated 1998).
